Source: patent publication US8435588B2, “High-potency sweetener composition with an anti-inflammatory agent and compositions sweetened therewith” (The Coca-Cola Company, priority 2005, dated 2013)

What was measured:
[1] = Rate of dissolution of rebaudioside A polymorph and amorphous forms in H2O; type: physicochemical
[2] = Sensory evaluation of sweetness linger by expert panel; type: in vivo; set-up: key: 0: no sweetness linger; 1: very slight sweetness linger; 2: slight sweetness linger; 3: moderate sweetness linger; 4: moderately high sweetness linger; 5: high sweetness linger; conditions: for Sweetness Linger rating (defined for controls of the protocol): sucrose, 500 ppm control sample, values defined as scale anchors; for sweetness linger: scale 0-5
Procedure: Sensory evaluation of the samples prepared in Example Set G was carried out under the following protocol, similar to that described hereinabove. In this test protocol, none of the samples were swallowed. All samples were expectorated and the mouth was rinsed with water after the tasting. Immediately upon sensing maximal sweetness, the sample was expectorated, the mouth was rinsed with water and the rate of sweetness decay (“Sweetness Linger”) was measured, where attention was focused on the sweetness 3-4 min after the water rinse. After sample tasting was complete, a salty oyster cracker was chewed followed by a water rinse, and at least 5 minutes followed before tasting the next sample. The sweetness linger was rated by a panel of experts in the sensory evaluation of foods and beverages using the following scale: 0=no sweetness linger, 1=very slight sweetness linger, 2=slight sweetness linger, 3=moderate sweetness linger, 4=moderately high sweetness linger, 5=high sweetness linger.
The “Sweetness Linger” rating for sucrose observed by this protocol is defined as 0. The Sweetness Linger of a 500 ppm of EBA control sample is defined as 5. Experimental samples were tasted by the same protocol, always allowing sufficient time between samples to ensure re-equilibration of the sensory system. Re-tasting of control samples during the course of the experiment was allowed and encouraged.
The comparison taste test was performed between two controls and addition of sweet taste improving additive on the onset and/or sweetness linger.
Sweet taste improving compositions were combined with a EBA solution to determine their effect on sweetness linger. Screening of the initial sample, or further dilutions, allowed identification of concentrations which were just above-threshold, herein defined as “near-threshold concentrations.” The near-threshold additive concentrations, a 6- to 100-fold higher additive concentration (depending on the off-taste intensity), and a mid-level additive concentration (halfway between the near-threshold and higher additive concentration) were evaluated to determine the effect on sweetness linger of a REBA solution.
Formulations of a 500 ppm EBA in a phosphoric acid solution (75%) at a pH of 2.5 with phosphoric acid or a pH of 3.1 with citric acid and potassium citrate were prepared prior to the addition of the additives at the three levels of concentration.
Sensory evaluation using the protocol described in Example Set G then was used to evaluate the sweetness linger of the REBA solutions.

[3] = type: physicochemical
Procedure: A solution of rebaudioside A (>97% pure by HPLC ) was prepared in double distilled water (12.5 gm in 50 mL, 25% concentration) by stirring the mixture at 40° C. for 5 minutes. An amorphous form of rebaudioside A was formed by immediately using the clear solution for spray drying with the Lab-Plant spray drier SD-04 instrument (Lab-Plant Ltd., West Yorkshire, U.K.). The solution was fed through the feed pump into the nozzle atomizer which atomized it into a spray of droplets with the help of a constant flow of nitrogen/air.

SMILES | Rate of dissolution in H2O at 25° C. [1] | Sweetness Linger rating (defined for controls of the protocol) [2] | other results
C=C1C[C@@]23CC[C@H]4[C@@](C)(CCC[C@@]4(C)C(=O)O[C@@H]4O[C@H](CO)[C@@H](O)[C@H](O)[C@H]4O)[C@@H]2CC[C@]1(O[C@@H]1O[C@H](CO)[C@@H](O)[C@H](O[C@@H]2O[C@H](CO)[C@@H](O)[C@H](O)[C@H]2O)[C@H]1O[C@@H]1O[C@H](CO)[C@@H](O)[C@H](O)[C@H]1O)C3 [Form 3, rebaudioside A] | High (>30%/5 %/5 minutes |  | 
OC[C@H]1O[C@@](CO)(O[C@H]2O[C@H](CO)[C@@H](O)[C@H](O)[C@H]2O)[C@@H](O)[C@@H]1O [sugar, sucrose, reference compound] |  | 0 | 
C=C1C[C@@]23CC[C@H]4[C@@](C)(CCC[C@@]4(C)C(=O)O[C@@H]4O[C@H](CO)[C@@H](O)[C@H](O)[C@H]4O)[C@@H]2CC[C@]1(O[C@@H]1O[C@H](CO)[C@@H](O)[C@H](O[C@@H]2O[C@H](CO)[C@@H](O)[C@H](O)[C@H]2O)[C@H]1O[C@@H]1O[C@H](CO)[C@@H](O)[C@H](O)[C@H]1O)C3 [Form 4, rebaudioside A] | High (>35.0%/ %/5 minutes |  | solubility in water at room temperature [3]: > 35.0%
C=C1C[C@@]23CC[C@H]4[C@@](C)(CCC[C@@]4(C)C(=O)O[C@@H]4O[C@H](CO)[C@@H](O)[C@H](O)[C@H]4O)[C@@H]2CC[C@]1(O[C@@H]1O[C@H](CO)[C@@H](O)[C@H](O[C@@H]2O[C@H](CO)[C@@H](O)[C@H](O)[C@H]2O)[C@H]1O[C@@H]1O[C@H](CO)[C@@H](O)[C@H](O)[C@H]1O)C3 [REBA, rebaudioside A] |  | 5 | sweetness linger ([2]; Example Set G: 400 ppm REBA in citric acid/potassium citrate composition equivalent to diet lemon-lime beverage, sugar control 8 g in 100 ml citrate buffer): 5; sweetness linger ([2]; Example Set H: 500 ppm REBA (H41: 360 ppm) in carbon-treated water, phosphoric acid (75%) to pH 2.4-2.5, sugar control 10 g in 100 ml): 5
C=C1C[C@@]23CC[C@H]4[C@@](C)(CCC[C@@]4(C)C(=O)O[C@@H]4O[C@H](CO)[C@@H](O)[C@H](O)[C@H]4O)[C@@H]2CC[C@]1(O[C@@H]1O[C@H](CO)[C@@H](O)[C@H](O[C@@H]2O[C@H](CO)[C@@H](O)[C@H](O)[C@H]2O)[C@H]1O[C@@H]1O[C@H](CO)[C@@H](O)[C@H](O)[C@H]1O)C3 [Form 1, rebaudioside A] | Very low (<0.2%/ %/60 minutes |  | 
C=C1C[C@@]23CC[C@H]4[C@@](C)(CCC[C@@]4(C)C(=O)O[C@@H]4O[C@H](CO)[C@@H](O)[C@H](O)[C@H]4O)[C@@H]2CC[C@]1(O[C@@H]1O[C@H](CO)[C@@H](O)[C@H](O[C@@H]2O[C@H](CO)[C@@H](O)[C@H](O)[C@H]2O)[C@H]1O[C@@H]1O[C@H](CO)[C@@H](O)[C@H](O)[C@H]1O)C3 [Form 2, rebaudioside A] | Intermediate (<30%/ %/5 minutes |  | 
